US20210163308A1, “COMPOSITIONS AND METHODS FOR THE MODULATION OF CYTOKINES” (GALLEON LABS LLC, priority 2018, published 2021)
Where a SMILES comes first, the peptide text is derived from it.

Tests used:
[1] = tested on: primary human cells (3C, 4H, LPS, SAg, BT, BF4T, BE3C, CASM3C, HDF3CGF, KF3CT, MyoF, /Mphg systems); test: Study CSM001-01-b: biomarker readouts in primary human cell systems, compounds in DMSO; assay type: cell-based
Experimental: (§1) Profiling was performed using the following processes:
(§2) All test compounds were dissolved in dimethyl sulfoxide (DMSO).

[2] = tested on: primary human cells; test: Study CSM001-01-b: overt cytotoxicity (SRB, Alamar Blue); assay type: cell-based; conditions: DMSO, >50% reduction in cellular protein levels (SRB) and/or PBMC viability
Experimental: An annotated assay profile was prepared for each test agent. Biomarker readouts are annotated when two or more consecutive concentrations are changed in the same direction, relative to the vehicle control, outside of the significance envelope and with an effect size of at least 10% (more than 0.05 log ratio units). Biomarker activities are annotated as “modulated” when they are increased in some system(s) and decreased in other system(s). If applicable, a benchmark overlay was performed at the top non-cytotoxic concentration. Results of a similarity search (all test agents) and clustering (at least three test agents) were determined. […] A table of overtly cytotoxic test agents was also prepared which are test agents with a >50% reduction in cellular protein levels (sulforhodamine B, SRB) in one or more systems; and/or >50% reduction in PBMC viability. […]
Alamar Blue assays were used to determine the viability of non-adherent PBMCs in the assay systems, and are based on the conversion of resazurin to resorufin via the reduction reactions of metabolically active cells. […] Upon entering cells, resazurin is reduced to resorufin which produces very bright red fluorescence. Viable cells continuously convert resazurin to resorufin, thereby generating a quantitative measure of viability and cytotoxicity. The amount of fluorescence produced is proportional to the number of living cells. […]

[3] = tested on: primary human cells (3C, 4H, LPS, SAg, BT, BF4T, BE3C, CASM3C, HDF3CGF, KF3CT, MyoF, /Mphg systems); test: Study CSM002-01-b: biomarker readouts in primary human cell systems, compounds in PBS; assay type: cell-based; conditions: for TF / TM: hemostasis-related activity
Experimental: Profiling was performed using the following processes: […]

[4] = tested on: primary human cells (HDFSAg, HDF3CGF, KF3CT, HDFLPS systems); test: Study CSM003-01-b: biomarker readouts in primary human cell systems, compounds in PBS; conditions: for pattern of immune responses in HDFSAg: HDFSAg system
Experimental: The following compounds were screened in the assay system at the noted concentrations to test for anti-proliferative, inflammation-related, immunomodulatory, tissue remodeling and hemostasis-related activities at the noted concentrations (Table 4). All test compounds were dissolved in phosphate buffered saline (PBS).
(§4) The following primary human cells were used as test systems: HDFSAg (dermal fibroblasts), HDF3CGF (dermal fibroblasts); KF3CT (keratinocytes+dermal fibroblasts) and HDFLPS (dermal fibroblasts+peripheral blood mononuclear cells).

[5] = tested on: endothelial cells, T cells, B cells, coronary artery smooth muscle cells and fibroblasts; test: Study CSM001-01-b: anti-proliferative activity; assay type: cell-based, human; conditions: DMSO
Experimental: as §2

[6] = tested on: endothelial cells, T cells, coronary artery smooth muscle cells and fibroblasts; test: Study CSM002-01-b: anti-proliferative activity; assay type: cell-based, human; conditions: PBS
[7] = tested on: fibroblasts; test: Study CSM003-01-b: anti-proliferative activity; assay type: cell-based, human; conditions: PBS, anhydrous
Experimental: All test compounds were dissolved in phosphate buffered saline (PBS).
as §4

[8] = tested on: primary human cells; test: Aspartame first activity profile (FIG. 46): biomarker readouts; assay type: cell-based
Experimental: as §1
FIG. 46 provides a first activity profile of aspartame. The key activities of aspartame include inflammation-related activities: decreased MCP-1 and SAA; increased IL-8, IL-1α and VCAM-1; immunomodulatory activities: decreased sIL-2; increased sIgG and sIL-6; modulated CD69; and tissue remodeling activities: decreased MMP-9; increased Collagen-I and tPA; modulated PAI-I.

[9] = tested on: primary human cells; test: Aspartame second activity profile (FIG. 47): biomarker readouts; assay type: cell-based
Experimental: as §1
(§3) FIG. 47 provides a second activity profile of aspartame. The key activities of aspartame include anti-proliferative to B cells (grey arrow); inflammation-related activities: decreased sTNFα and IL1α; increased MCP-1 and VCAM-1; immunomodulatory activities: increased sIL-17A, sIL-17F, sIL-6, and CD40; and tissue remodeling activities: decreased MMP9; increased MMP3, αSMA, and Col-I.

[10] = tested on: B cells; test: Aspartame second activity profile (FIG. 47): anti-proliferative activity; assay type: cell-based, human
Experimental: as §1, §3

Compound: CC(=O)N[C@@H](CS)C(=O)O [N-acetyl-L-cysteine]
- CD40 ([1]; immunomodulatory activity): decreased
- sIL-17A ([1]; immunomodulatory activity): decreased
- Eotaxin-3 ([1]; inflammation-related activity): decreased
- IL-6 ([1]; inflammation-related activity): increased
- IL-8 ([1]; inflammation-related activity): modulated
- IP-10 ([1]; inflammation-related activity): decreased
- MIG ([1]; inflammation-related activity): decreased
- sTNFα ([1]; inflammation-related activity): decreased
- Collagen-I ([1]; tissue remodeling activity): increased
- EGFR ([1]; tissue remodeling activity): decreased
- Keratin 8/18 ([1]; tissue remodeling activity): increased
- MMP-1 ([1]; tissue remodeling activity): increased
- MMP-3 ([1]; tissue remodeling activity): increased
- MMP-9 ([1]; tissue remodeling activity): modulated
- PAI-I ([1]; tissue remodeling activity): increased
- TIMP-I ([1]; tissue remodeling activity): increased
- tPA ([1]; tissue remodeling activity): increased
- uPAR ([1]; tissue remodeling activity): increased
- overt cytotoxicity [2]: overtly toxic in multiple systems at the top two concentrations tested
- Esel ([3]; inflammation-related activity): decreased
- IL1α ([3]; inflammation-related activity): decreased
- IL-6 ([3]; inflammation-related activity): decreased
- IL-8 ([3]; inflammation-related activity): decreased
- IP-10 ([3]; inflammation-related activity): decreased
- ITAC ([3]; inflammation-related activity): decreased
- sTNFα ([3]; inflammation-related activity): decreased
- Col-I ([3]; tissue remodeling activity): increased
- EGFR ([3]; tissue remodeling activity): decreased
- MMP-3 ([3]; tissue remodeling activity): increased
- tPA ([3]; tissue remodeling activity): modulated
- αSMA ([3]; tissue remodeling activity): increased

Compound: O.O.O.O.O.O.[Cl-].[Cl-].[Sr+2] [Strontium chloride hexahydrate]
- pattern of immune responses in HDFSAg [4]: enhanced immune responses
- sIL-6 ([4]; immunomodulatory activity): increased
- sIL-10 ([4]; immunomodulatory activity): increased
- sIL-17A ([4]; immunomodulatory activity): increased
- sIL-17F ([4]; immunomodulatory activity): increased

Compound: O=[N+]([O-])[O-].O=[N+]([O-])[O-].[Sr+2] [Strontium nitrate, Strontium Nitrate]
- proliferation of B cells [5]: anti-proliferative
- proliferation of T cells [5]: anti-proliferative
- proliferation of coronary artery smooth muscle cells [5]: anti-proliferative
- proliferation of endothelial cells [5]: anti-proliferative
- proliferation of fibroblasts [5]: anti-proliferative
- TF ([1]; hemostasis-related activity): increased
- TM ([1]; hemostasis-related activity): increased
- HLA-DR ([1]; immunomodulatory activity): decreased
- M-CSF ([1]; immunomodulatory activity): increased
- sIL-6 ([1]; immunomodulatory activity): decreased
- sIL-17A ([1]; immunomodulatory activity): decreased
- sIL-17F ([1]; immunomodulatory activity): decreased
- sIgG ([1]; immunomodulatory activity): decreased
- Eotaxin-3 ([1]; inflammation-related activity): decreased
- I-TAC ([1]; inflammation-related activity): decreased
- IL-1α ([1]; inflammation-related activity): decreased
- IL-8 ([1]; inflammation-related activity): decreased
- IP-10 ([1]; inflammation-related activity): decreased
- MCP-1 ([1]; inflammation-related activity): decreased
- SAA ([1]; inflammation-related activity): decreased
- VCAM-1 ([1]; inflammation-related activity): decreased
- sPGE2 ([1]; inflammation-related activity): increased
- sTNFα ([1]; inflammation-related activity): decreased
- Keratin 8/18 ([1]; tissue remodeling activity): increased
- MMP-1 ([1]; tissue remodeling activity): decreased
- MMP-3 ([1]; tissue remodeling activity): increased
- MMP-9 ([1]; tissue remodeling activity): decreased
- PAI-I ([1]; tissue remodeling activity): decreased
- TIMP-2 ([1]; tissue remodeling activity): increased
- uPAR ([1]; tissue remodeling activity): decreased
- pattern of immune responses in HDFSAg [4]: enhanced immune responses
- sIL-2 ([4]; immunomodulatory activity): increased
- sIL-6 ([4]; immunomodulatory activity): increased
- sIL-10 ([4]; immunomodulatory activity): increased
- MCP-1 ([4]; inflammation-related activity): decreased
- proliferation of coronary artery smooth muscle cells [6]: anti-proliferative
- proliferation of fibroblasts [7]: anti-proliferative to fibroblasts at the top concentration only
- TF [3]: decreased
- TM [3]: increased
- CD40 ([3]; immunomodulatory activity): increased
- M-CSF ([3]; immunomodulatory activity): decreased
- ICAM-1 ([3]; inflammation-related activity): increased
- IL1α ([3]; inflammation-related activity): modulated
- IP-10 ([3]; inflammation-related activity): decreased
- MIP-1 ([3]; inflammation-related activity): decreased
- VCAM-1 ([3]; inflammation-related activity): increased
- sTNFα ([3]; inflammation-related activity): decreased
- Ker 8/18 ([3]; tissue remodeling activity): increased
- MMP-1 ([3]; tissue remodeling activity): increased
- MMP-9 ([3]; tissue remodeling activity): increased
- tPA ([3]; tissue remodeling activity): increased
- uPAR ([3]; tissue remodeling activity): increased

Compound: COC(=O)[C@H](Cc1ccccc1)NC(=O)[C@@H](N)CC(=O)O [aspartame] (H-Asp-Phe-OMe)
- CD69 ([8]; immunomodulatory activity): modulated
- sIL-2 ([8]; immunomodulatory activity): decreased
- sIL-6 ([8]; immunomodulatory activity): increased
- sIgG ([8]; immunomodulatory activity): increased
- IL-1α ([8]; inflammation-related activity): increased
- IL-8 ([8]; inflammation-related activity): increased
- MCP-1 ([8]; inflammation-related activity): decreased
- SAA ([8]; inflammation-related activity): decreased
- VCAM-1 ([8]; inflammation-related activity): increased
- Collagen-I ([8]; tissue remodeling activity): increased
- MMP-9 ([8]; tissue remodeling activity): decreased
- PAI-I ([8]; tissue remodeling activity): modulated
- tPA ([8]; tissue remodeling activity): increased
- CD40 ([9]; immunomodulatory activity): increased
- sIL-6 ([9]; immunomodulatory activity): increased
- sIL-17A ([9]; immunomodulatory activity): increased
- sIL-17F ([9]; immunomodulatory activity): increased
- IL1α ([9]; inflammation-related activity): decreased
- MCP-1 ([9]; inflammation-related activity): increased
- VCAM-1 ([9]; inflammation-related activity): increased
- sTNFα ([9]; inflammation-related activity): decreased
- Col-I ([9]; tissue remodeling activity): increased
- MMP3 ([9]; tissue remodeling activity): increased
- MMP9 ([9]; tissue remodeling activity): decreased
- αSMA ([9]; tissue remodeling activity): increased
- proliferation of B cells [10]: anti-proliferative

Compound: CC(O)CC(=O)O (stereo not drawn) [beta hydroxybutyric acid]
- proliferation of T cells [5]: anti-proliferative
- proliferation of endothelial cells [5]: anti-proliferative
- M-CSF ([1]; immunomodulatory activity): increased
- sIgG ([1]; immunomodulatory activity): decreased
- ICAM-1 ([1]; inflammation-related activity): increased
- IL-1α ([1]; inflammation-related activity): increased
- IL-8 ([1]; inflammation-related activity): decreased
- MIG ([1]; inflammation-related activity): decreased
- VCAM-1 ([1]; inflammation-related activity): decreased
- Collagen-I ([1]; tissue remodeling activity): increased
- EGFR ([1]; tissue remodeling activity): increased
- MMP-9 ([1]; tissue remodeling activity): modulated
- PAI-I ([1]; tissue remodeling activity): modulated
- tPA ([1]; tissue remodeling activity): increased
- uPA ([1]; tissue remodeling activity): increased
- overt cytotoxicity [2]: overtly toxic in multiple systems at the top concentration tested
- proliferation of T cells [6]: anti-proliferative
- proliferation of coronary artery smooth muscle cells [6]: anti-proliferative
- proliferation of endothelial cells [6]: anti-proliferative
- TF [3]: increased
- TM [3]: increased
- CD40 ([3]; immunomodulatory activity): increased
- CD69 ([3]; immunomodulatory activity): increased
- M-CSF ([3]; immunomodulatory activity): increased
- sIL-6 ([3]; immunomodulatory activity): increased
- IL1α ([3]; inflammation-related activity): decreased
- IL-8 ([3]; inflammation-related activity): decreased
- MCP-1 ([3]; inflammation-related activity): increased
- sTNFα ([3]; inflammation-related activity): decreased
- Col-I ([3]; tissue remodeling activity): increased
- MMP-3 ([3]; tissue remodeling activity): increased
- MMP-9 ([3]; tissue remodeling activity): decreased
- αSMA ([3]; tissue remodeling activity): increased

Compound: O=C(O)c1cc(O)c(O)c(O)c1 [gallic acid, 3,4,5-trihydroxy benzoic acid]
- proliferation of T cells [5]: antiproliferative
- proliferation of coronary artery smooth muscle cells [5]: antiproliferative
- proliferation of endothelial cells [5]: antiproliferative
- proliferation of fibroblasts [5]: antiproliferative
- M-CSF ([1]; immunomodulatory activity): decreased
- sIL-2 ([1]; immunomodulatory activity): decreased
- sIL-10 ([1]; immunomodulatory activity): increased
- sIL-17A ([1]; immunomodulatory activity): decreased
- Eotaxin-3 ([1]; inflammation-related activity): decreased
- I-TAC ([1]; inflammation-related activity): decreased
- ICAM-1 ([1]; inflammation-related activity): decreased
- IL-1α ([1]; inflammation-related activity): decreased
- IL-8 ([1]; inflammation-related activity): increased
- IP-10 ([1]; inflammation-related activity): decreased
- MIG ([1]; inflammation-related activity): decreased
- MIP-1 ([1]; inflammation-related activity): increased
- SAA ([1]; inflammation-related activity): decreased
- VCAM-1 ([1]; inflammation-related activity): modulated
- sTNFα ([1]; inflammation-related activity): decreased
- Collagen-III ([1]; tissue remodeling activity): increased
- Collagen-IV ([1]; tissue remodeling activity): increased
- EGFR ([1]; tissue remodeling activity): increased
- Keratin 8/18 ([1]; tissue remodeling activity): decreased
- MMP-1 ([1]; tissue remodeling activity): increased
- MMP-3 ([1]; tissue remodeling activity): increased
- MMP-9 ([1]; tissue remodeling activity): decreased
- PAI-I ([1]; tissue remodeling activity): modulated
- bFGF ([1]; tissue remodeling activity): decreased
- tPA ([1]; tissue remodeling activity): increased
- α-SMA ([1]; tissue remodeling activity): increased
- proliferation of T cells [6]: anti-proliferative
- proliferation of coronary artery smooth muscle cells [6]: anti-proliferative
- proliferation of endothelial cells [6]: anti-proliferative
- proliferation of fibroblasts [6]: anti-proliferative
- M-CSF ([3]; immunomodulatory activity): modulated
- IL-8 ([3]; inflammation-related activity): increased
- IP-10 ([3]; inflammation-related activity): increased
- ITAC ([3]; inflammation-related activity): decreased
- VCAM-1 ([3]; inflammation-related activity): decreased
- sPGE2 ([3]; inflammation-related activity): increased
- sTNFα ([3]; inflammation-related activity): decreased
- MMP-9 ([3]; tissue remodeling activity): increased
- tPA ([3]; tissue remodeling activity): increased
- uPA ([3]; tissue remodeling activity): increased
- αSMA ([3]; tissue remodeling activity): increased
